Results from the supplement of paper PMC10307832.

Columns and labels:
Assay in all cases: relative viability (nuclei count vs DMSO), 5 days (fraction); higher = more cells survive
[1] = test system: NCI-H460
Procedure, shortened: (§1)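 Dosing by pin tool came one day after lung cancer cell lines were seeded in 1536-well plates, using either one drug or a fixed anchor-drug dose plus five library-drug doses (not always all listed) in √10 steps. After 5 days, nuclei were counted on 4× images. Relative viability is treated-well nuclei count divided by vehicle-well nuclei count, and values are medians of duplicate plates.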

[2] = test system: NCI-H1944
Procedure, shortened: as §1

[3] = test system: NCI-H1651
Procedure, shortened: as §1

[4] = test system: NCI-H520
Procedure, shortened: as §1

[5] = test system: BEN
Procedure, shortened: as §1

[6] = test system: NCI-H596
Procedure, shortened: as §1

[7] = test system: NCI-H838
Procedure, shortened: as §1

[8] = test system: NCI-H2085
Procedure, shortened: as §1

[9] = test system: NCI-H661
Procedure, shortened: as §1

[10] = test system: LOU-NH91
Procedure, shortened: as §1

[11] = test system: NCI-H2126
Procedure, shortened: as §1

[12] = test system: LCLC-103H
Procedure, shortened: as §1

[13] = test system: HARA
Procedure, shortened: as §1

[14] = test system: NCI-H1975
Procedure, shortened: as §1

[15] = test system: NCI-H647
Procedure, shortened: as §1

[16] = test system: SW 900
Procedure, shortened: as §1

[17] = test system: A-427
Procedure, shortened: as §1

[18] = test system: NCI-H1734
Procedure, shortened: as §1

[19] = test system: NCI-H727
Procedure, shortened: as §1

[20] = test system: CAL-12T
Procedure, shortened: as §1

[21] = test system: RERF-LC-KJ
Procedure, shortened: as §1

[22] = test system: NCI-H1666
Procedure, shortened: as §1

[23] = test system: ABC-1
Procedure, shortened: as §1

## CN1CCN(CCOc2cc(OC3CCOCC3)c3c(Nc4c(Cl)ccc5c4OCO5)ncnc3c2)CC1 [Saracatinib] + O=C(c1cc(Cc2n[nH]c(=O)c3ccccc23)ccc1F)N1CCN(C(=O)C2CC2)CC1 [Olaparib] (partner 8 µM)
[1]; first compound 0.02 µM
  relative viability: 0.416
[1]; first compound 0.2 µM
  relative viability: 0.285
[1]; first compound 0.6325 µM
  relative viability: 0.423
[1]; first compound 2 µM
  relative viability: 0.409
[2]; first compound 0.02 µM
  relative viability: 0.406
[2]; first compound 0.2 µM
  relative viability: 0.344
[2]; first compound 0.6325 µM
  relative viability: 0.44
[2]; first compound 2 µM
  relative viability: 0.358
[3]; first compound 0.02 µM
  relative viability: 0.191
[3]; first compound 0.2 µM
  relative viability: 0.16
[3]; first compound 0.6325 µM
  relative viability: 0.162
[3]; first compound 2 µM
  relative viability: 0.165
[4]; first compound 0.02 µM
  relative viability: 0.354
[4]; first compound 0.2 µM
  relative viability: 0.327
[4]; first compound 0.6325 µM
  relative viability: 0.289
[4]; first compound 2 µM
  relative viability: 0.243
[5]; first compound 0.02 µM
  relative viability: 1.15
[5]; first compound 0.2 µM
  relative viability: 0.922
[5]; first compound 0.6325 µM
  relative viability: 1.15
[5]; first compound 2 µM
  relative viability: 0.794
[6]; first compound 0.02 µM
  relative viability: 0.727
[6]; first compound 0.2 µM
  relative viability: 0.589
[6]; first compound 0.6325 µM
  relative viability: 0.684
[6]; first compound 2 µM
  relative viability: 0.546
[7]; first compound 0.02 µM
  relative viability: 0.776
[7]; first compound 0.2 µM
  relative viability: 0.643
[7]; first compound 0.6325 µM
  relative viability: 0.656
[7]; first compound 2 µM
  relative viability: 0.505
[8]; first compound 0.02 µM
  relative viability: 0.802
[8]; first compound 0.2 µM
  relative viability: 0.602
[8]; first compound 0.6325 µM
  relative viability: 0.821
[8]; first compound 2 µM
  relative viability: 0.863
[9]; first compound 0.02 µM
  relative viability: 0.748
[9]; first compound 0.2 µM
  relative viability: 0.625
[9]; first compound 0.6325 µM
  relative viability: 0.671
[9]; first compound 2 µM
  relative viability: 0.59
[10]; first compound 0.02 µM
  relative viability: 0.862
[10]; first compound 0.2 µM
  relative viability: 0.711
[10]; first compound 0.6325 µM
  relative viability: 0.73
[10]; first compound 2 µM
  relative viability: 0.613
[11]; first compound 0.02 µM
  relative viability: 0.886
[11]; first compound 0.2 µM
  relative viability: 0.924
[11]; first compound 0.6325 µM
  relative viability: 0.923
[11]; first compound 2 µM
  relative viability: 0.763
[12]; first compound 0.02 µM
  relative viability: 0.796
[12]; first compound 0.2 µM
  relative viability: 0.71
[12]; first compound 0.6325 µM
  relative viability: 0.758
[12]; first compound 2 µM
  relative viability: 0.807
[13]; first compound 0.02 µM
  relative viability: 0.891
[13]; first compound 0.2 µM
  relative viability: 0.631
[13]; first compound 0.6325 µM
  relative viability: 0.878
[13]; first compound 2 µM
  relative viability: 0.311
[14]; first compound 0.02 µM
  relative viability: 0.787
[14]; first compound 0.2 µM
  relative viability: 0.793
[14]; first compound 0.6325 µM
  relative viability: 0.804
[14]; first compound 2 µM
  relative viability: 0.517
[15]; first compound 0.02 µM
  relative viability: 0.574
[15]; first compound 0.2 µM
  relative viability: 0.539
[15]; first compound 0.6325 µM
  relative viability: 0.406
[15]; first compound 2 µM
  relative viability: 0.364
[16]; first compound 0.02 µM
  relative viability: 0.831
[16]; first compound 0.2 µM
  relative viability: 0.753
[16]; first compound 0.6325 µM
  relative viability: 0.784
[16]; first compound 2 µM
  relative viability: 0.643
[17]; first compound 0.02 µM
  relative viability: 0.733
[17]; first compound 0.2 µM
  relative viability: 0.689
[17]; first compound 0.6325 µM
  relative viability: 0.715
[17]; first compound 2 µM
  relative viability: 0.71
[18]; first compound 0.02 µM
  relative viability: 0.592
[18]; first compound 0.6325 µM
  relative viability: 0.515
[18]; first compound 2 µM
  relative viability: 0.547
[19]; first compound 0.02 µM
  relative viability: 0.687
[19]; first compound 0.2 µM
  relative viability: 0.51
[19]; first compound 0.6325 µM
  relative viability: 0.534
[19]; first compound 2 µM
  relative viability: 0.578
[20]; first compound 0.02 µM
  relative viability: 0.787
[20]; first compound 0.2 µM
  relative viability: 0.682
[20]; first compound 0.6325 µM
  relative viability: 0.825
[20]; first compound 2 µM
  relative viability: 0.701
[21]; first compound 0.02 µM
  relative viability: 1.09
[21]; first compound 0.2 µM
  relative viability: 0.841
[21]; first compound 0.6325 µM
  relative viability: 0.9
[21]; first compound 2 µM
  relative viability: 0.977
[22]; first compound 0.02 µM
  relative viability: 0.722
[22]; first compound 0.2 µM
  relative viability: 0.696
[22]; first compound 0.6325 µM
  relative viability: 0.974
[22]; first compound 2 µM
  relative viability: 0.995
[23]; first compound 0.02 µM
  relative viability: 0.568
[23]; first compound 0.2 µM
  relative viability: 0.941
[23]; first compound 0.6325 µM
  relative viability: 0.706
[23]; first compound 2 µM
  relative viability: 0.751
